Like-named read-outs stand apart in the source and are kept apart here. Where a SMILES comes first, the peptide text is derived from it. The star is where a group is joined. Cbz = O=C(OCc1ccccc1)*
Legend:
[1] = target: T1, cathepsin G (Homo sapiens, UniProt P08311); assay: biochemical
T1 construct: purchased Novus Biological
T1 sequence (P08311 21-255): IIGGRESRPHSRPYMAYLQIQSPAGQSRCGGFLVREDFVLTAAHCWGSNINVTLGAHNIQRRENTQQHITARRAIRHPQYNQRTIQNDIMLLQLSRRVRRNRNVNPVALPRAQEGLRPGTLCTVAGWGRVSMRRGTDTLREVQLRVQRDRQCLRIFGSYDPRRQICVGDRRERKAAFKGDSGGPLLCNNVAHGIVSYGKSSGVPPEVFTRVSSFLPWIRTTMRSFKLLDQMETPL

[2] = system: SARS-CoV-2 pseudoviruses in cells expressing hACE2; assay: microbe, parasite or virus in culture; format: cell-based; settings: Severe acute respiratory syndrome coronavirus 2, HEK-293T, read-out: EC50 Pseudovirus entry assay hACE2
[3] = target: T2, cathepsin B (Homo sapiens, UniProt P07858); assay: biochemical
T2 construct: purchased Abcam

[4] = target: T3, thrombin (Homo sapiens, UniProt P00734); assay: biochemical
T3 construct: purchased AnaSpec

[5] = system: SARS-CoV-2 pseudoviruses in cells expressing hACE2 plus TMPRSS2; assay: microbe, parasite or virus in culture; format: cell-based; settings: Severe acute respiratory syndrome coronavirus 2, HEK-293T, read-out: EC50 Pseudovirus entry assay hACE2+ TMPRSS2
[6] = target: T4, cathepsin D (Homo sapiens, UniProt P07339); assay: biochemical
T4 construct: purchased Abcam

[7] = system: chymotrypsin; format: biochemical, human
[8] = target: T5, MERS-CoV 3CLpro (Middle East respiratory syndrome-related coronavirus, UniProt K9N7C7); settings: read-out: IC50 MERS-CoV (3CLpro); cited from earlier work
[9] = target: T6, neutrophil elastase (Homo sapiens, UniProt P08246); assay: biochemical
T6 construct: purchased Sigma-Aldrich
T6 sequence (P08246 30-267): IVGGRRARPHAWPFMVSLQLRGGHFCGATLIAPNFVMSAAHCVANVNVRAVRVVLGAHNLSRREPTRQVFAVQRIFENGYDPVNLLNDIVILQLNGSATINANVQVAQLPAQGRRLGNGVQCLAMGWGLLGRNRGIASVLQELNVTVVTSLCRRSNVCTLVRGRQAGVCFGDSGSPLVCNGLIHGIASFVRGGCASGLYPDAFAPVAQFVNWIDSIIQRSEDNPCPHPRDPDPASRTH

[10] = target: T7, SARS-CoV-2 3CLpro (Severe acute respiratory syndrome coronavirus 2, UniProt P0DTD1); settings: read-out: IC50 SARS-CoV-2 (3CLpro); cited from earlier work
[11] = target: T8, cathepsin L (Homo sapiens, UniProt P07711); assay: biochemical
T8 construct: purchased AnaSpec

[12] = target: T7, SARS-CoV-2 3CLpro; assay: biochemical
[13] = target: T5, MERS-CoV 3CLpro; assay: biochemical
[14] = system: SARS-CoV-2 replicon; assay: microbe, parasite or virus in culture; format: cell-based; settings: Severe acute respiratory syndrome coronavirus 2, read-out: EC50 SARS-CoV-2 replicon
[15] = system: SARS-CoV-2 replicon; settings: cited from earlier work

T8 sequence (P07711 114-333): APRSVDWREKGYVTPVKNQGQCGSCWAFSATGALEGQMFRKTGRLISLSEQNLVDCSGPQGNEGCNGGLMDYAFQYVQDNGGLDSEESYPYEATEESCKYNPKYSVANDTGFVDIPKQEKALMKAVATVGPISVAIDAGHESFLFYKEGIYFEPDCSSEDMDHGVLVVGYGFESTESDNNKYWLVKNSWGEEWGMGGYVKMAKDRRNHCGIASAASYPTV
T4 sequence (P07339 65-412): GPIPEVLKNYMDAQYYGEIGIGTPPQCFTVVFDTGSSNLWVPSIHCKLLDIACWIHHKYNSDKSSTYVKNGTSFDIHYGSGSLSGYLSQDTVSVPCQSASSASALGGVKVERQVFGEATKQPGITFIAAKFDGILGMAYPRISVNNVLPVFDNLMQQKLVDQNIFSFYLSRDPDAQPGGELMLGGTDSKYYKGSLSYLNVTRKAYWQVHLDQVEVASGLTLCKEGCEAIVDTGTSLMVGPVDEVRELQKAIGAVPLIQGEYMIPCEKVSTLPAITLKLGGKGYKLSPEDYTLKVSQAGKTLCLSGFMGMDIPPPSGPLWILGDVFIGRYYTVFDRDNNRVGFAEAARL
T5 sequence (K9N7C7 3248-3553 limits assumed): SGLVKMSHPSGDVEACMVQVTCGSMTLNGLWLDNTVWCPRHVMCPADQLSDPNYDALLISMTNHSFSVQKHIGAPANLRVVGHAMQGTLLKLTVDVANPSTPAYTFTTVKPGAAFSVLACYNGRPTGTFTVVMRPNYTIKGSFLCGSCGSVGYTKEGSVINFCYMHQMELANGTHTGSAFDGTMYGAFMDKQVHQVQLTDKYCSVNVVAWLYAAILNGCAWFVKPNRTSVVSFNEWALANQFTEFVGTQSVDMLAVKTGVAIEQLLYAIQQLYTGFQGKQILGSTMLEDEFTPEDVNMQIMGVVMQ

Structure (SMILES): CC(C)CC(NC(=O)OCC1CC1c1cccc(F)c1)C(=O)NC(CC1CCNC1=O)C(O)S(=O)(=O)O (stereo not shown) [5d]
- IC50 [1]: > 50 µM
- EC50 [2]: 0.05 ± 0.02 µM
- IC50 [3]: 0.23 ± 0.08 µM
- IC50 [4]: > 50 µM
- EC50 [5]: > 50 µM
- IC50 [6]: > 50 µM
- IC50 [7]: > 50 µM
- IC50 [8]: 0.07 ± 0.03 µM
- IC50 [9]: > 50 µM
- IC50 [10]: 0.19 ± 0.02 µM
- IC50 [11]: 0.02 ± 0.02 µM

Structure (SMILES): N=C(N)c1ccc2cc(OC(=O)c3ccc(N=C(N)N)cc3)ccc2c1 [Nafamostat]
- EC50 [2]: > 50 µM
- IC50 [12]: > 50 µM
- IC50 [13]: > 50 µM
- EC50 [14]: > 50 µM

Structure (SMILES): COc1ccccc1C1CC1COC(=O)NC(CC(C)C)C(=O)NC(C=O)CC1CCNC1=O (stereo not shown) [11c]
- IC50 [1]: > 50 µM
- EC50 [2]: 0.13 ± 0.03 µM
- IC50 [3]: 0.31 ± 0.05 µM
- IC50 [4]: > 50 µM
- EC50 [5]: > 50 µM
- IC50 [6]: > 50 µM
- IC50 [7]: > 50 µM
- IC50 [8]: 0.12 ± 0.11 µM
- IC50 [9]: > 50 µM
- IC50 [10]: 0.14 ± 0.04 µM
- IC50 [11]: 0.03 ± 0.01 µM

Structure (SMILES): COc1ccccc1C1CC1COC(=O)NC(CC(C)C)C(=O)NC(CC1CCNC1=O)C(O)S(=O)(=O)O (stereo not shown) [11d]
- IC50 [1]: > 50 µM
- EC50 [2]: 0.12 ± 0.05 µM
- IC50 [3]: 0.27 ± 0.06 µM
- IC50 [4]: > 50 µM
- EC50 [5]: > 50 µM
- IC50 [6]: > 50 µM
- IC50 [7]: > 50 µM
- IC50 [8]: 0.07 ± 0.01 µM
- IC50 [9]: > 50 µM
- IC50 [10]: 0.14 ± 0.05 µM
- IC50 [11]: 0.02 ± 0.02 µM
- EC50 [15]: 0.012 µM

Structure (SMILES): CC(C)[C@H](NC(=O)OCc1ccccc1)C(=O)N[C@H](C=O)Cc1ccccc1 [MDL28170] (Cbz-Val-Phe-aldehyde)
- EC50 [2]: 0.01 ± 0.03 µM
- IC50 [12]: > 50 µM
- EC50 [5]: > 50 µM
- IC50 [13]: > 50 µM
- EC50 [14]: > 50 µM

Structure (SMILES): CC(C)CC(NC(=O)OCC1CC1c1cccc(F)c1)C(=O)NC(C=O)CC1CCNC1=O (stereo not shown) [5c]
- IC50 [1]: > 50 µM
- EC50 [2]: 0.06 ± 0.03 µM
- IC50 [3]: 0.24 ± 0.05 µM
- IC50 [4]: > 50 µM
- EC50 [5]: > 50 µM
- IC50 [6]: > 50 µM
- IC50 [7]: > 50 µM
- IC50 [8]: 0.08 ± 0.03 µM
- IC50 [9]: > 50 µM
- IC50 [10]: 0.18 ± 0.03 µM
- IC50 [11]: 0.03 ± 0.01 µM
- EC50 [15]: 0.012 µM

Source: paper PMC10865860 (mBio, 2023)
